Results reported in PubChem BioAssay (NCI).
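Protocol summary: plate cells (96-well), add compound at 5 concentrations, incubate 48 h, interpolate endpoints linearly. Here, GI50 denotes the concentration required for 50% inhibition of growth. At the TGI there is no net growth.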

Assays:
Assay in all cases: growth of human tumour cells (NCI), 48 h
SF-295 CNS = test system: SF-295 CNS
CCRF-CEM leukemia = test system: CCRF-CEM leukemia
IGROV1 ovarian = test system: IGROV1 ovarian
HL-60(TB) leukemia = test system: HL-60(TB) leukemia
NCI-H23 lung = test system: NCI-H23 lung
HCT-15 colon = test system: HCT-15 colon
CAKI-1 renal = test system: CAKI-1 renal
K-562 leukemia = test system: K-562 leukemia
UACC-257 melanoma = test system: UACC-257 melanoma
HT29 colon = test system: HT29 colon

| SMILES | TGI (SF-295 CNS) [µM] | TGI (CCRF-CEM leukemia) [µM] | TGI (IGROV1 ovarian) [µM] | TGI (HL-60(TB) leukemia) [µM] | TGI (NCI-H23 lung) [µM] | TGI (HCT-15 colon) [µM] | TGI (CAKI-1 renal) [µM] | TGI (K-562 leukemia) [µM] | TGI (UACC-257 melanoma) [µM] | TGI (HT29 colon) [µM] | GI50 (CCRF-CEM leukemia) [µM] | GI50 (IGROV1 ovarian) [µM] | GI50 (HL-60(TB) leukemia) [µM] | GI50 (NCI-H23 lung) [µM] | GI50 (HCT-15 colon) [µM] | GI50 (CAKI-1 renal) [µM] | GI50 (K-562 leukemia) [µM] | GI50 (UACC-257 melanoma) [µM] | GI50 (HT29 colon) [µM] |
| --- | --- | --- | --- | --- | --- | --- | --- | --- | --- | --- | --- | --- | --- | --- | --- | --- | --- | --- | --- |
| CCCCc1ccc(-n2sc3ncc(-c4ccccc4)cc3c2=O)cc1 | > 100 | > 100 | > 100 | > 100 | > 100 | > 100 | > 100 | > 100 | – | – | – | – | – | – | – | – | – | – | – |
| O=c1oc(-c2ccc(O)cc2)cc2cc(O)ccc12 | > 100 | > 100 | > 100 | 48.6 | 57.6 | > 100 | > 100 | 39.8 | > 100 | – | – | – | – | – | – | – | – | – | – |
| Nc1ccccc1C#CC(=O)c1cccc(C(F)(F)F)c1 | 34.1 | 4.42 | 1.99 | 41.1 | 4.71 | – | 13.5 | > 100 | 29.5 | 19.2 | – | – | – | – | – | – | – | – | – |
| CO/N=C\c1ccc2c(c1)Sc1ccccc1O2 | > 100 | – | > 100 | > 100 | > 100 | > 100 | > 100 | > 100 | > 100 | > 100 | – | – | – | – | – | – | – | – | – |
| N#CCCN(CCC#N)c1ccc(/C=C2\N=C(c3ccccc3)N(c3ccc(C(=O)O)cc3)C2=O)cc1 | > 100 | – | 53.3 | – | – | > 100 | – | > 100 | > 100 | > 100 | – | – | – | – | – | – | – | – | – |
| Oc1ccc(/C=C/c2cccc(/C=C/c3ccc(O)c(O)c3)n2)cc1O | 65.1 | > 100 | 19.6 | 13.4 | – | > 100 | 90.5 | 49.6 | 28.5 | 24.5 | – | – | – | – | – | – | – | – | – |
| CCC(C)C(N)C(=O)N/N=C\c1c2c(nc3ccccc13)-c1cc3c(c(=O)n1C2)COC(=O)[C@]3(O)CC (some centres undefined) | 1.37 | – | > 47 | 0.68 | 0.401 | > 100 | 65.5 | > 45.1 | 11.9 | > 100 | – | – | – | – | – | – | – | – | – |
| CC1(C)OCC(C2OC3OC(C)(C)OC3C2c2ccccc2)O1 (centres undefined) | > 100 | > 100 | > 100 | 50 | 97.2 | > 100 | – | > 100 | > 100 | > 100 | – | – | – | – | – | – | – | – | – |
| CCC(=O)N/S(=N/S(=O)(=O)c1ccccc1)C(Cl)(Cl)Cl (centres undefined) | > 100 | > 100 | > 100 | > 100 | > 100 | > 100 | – | > 100 | > 100 | > 100 | – | – | – | – | – | – | – | – | – |
| COC(=O)CCC1(CCC(=O)OC)CCCCCCC(CCC(=O)OC)(CCC(=O)OC)C(=O)C1=O | > 100 | – | > 100 | – | > 100 | > 100 | > 100 | > 100 | > 100 | > 100 | – | – | – | – | – | – | – | – | – |
| COC(=O)C1Cc2c(OC)ccc(OC)c2C(O)C1C(=O)OC (centres undefined) | > 100 | > 100 | > 100 | > 100 | > 100 | – | > 100 | > 100 | > 100 | > 100 | – | – | – | – | – | – | – | – | – |
| CC1(C)CC(=O)c2c(nc3c(ccc4ccccc43)c2-c2ccc(NC(=O)CCC(=O)Nc3ccc(-c4c5c(nc6c4ccc4ccccc46)CC(C)(C)CC5=O)cc3)cc2)C1 | > 100 | > 100 | > 100 | > 100 | – | > 100 | > 100 | > 100 | > 100 | > 100 | – | – | – | – | – | – | – | – | – |
| COc1ccc(-c2oc3cc(OC)c(OC)c(O)c3c(=O)c2OC)cc1 | 46.9 | > 100 | 56.8 | > 100 | – | > 100 | > 100 | > 100 | > 100 | > 100 | – | – | – | – | – | – | – | – | – |
| O=C(O)c1nc2ccc(C(F)(F)F)cc2nc1Nc1ccc(Cl)c(Cl)c1 | 17 | – | 34.7 | 21.9 | 19 | 22.6 | 30.6 | 16.3 | 56.4 | 27.1 | – | – | – | – | – | – | – | – | – |
| O=C(c1cccs1)c1nccc2c1cnc1ccccc12 | > 100 | > 100 | – | > 100 | > 100 | > 100 | > 100 | > 100 | > 100 | > 100 | – | – | – | – | – | – | – | – | – |
| O=C1C[C@@]23CCC4(CC2CCC[C@H]3O1)OCCO4 (some centres undefined) | > 100 | – | > 100 | > 100 | > 100 | > 100 | – | > 100 | > 100 | > 100 | – | – | – | – | – | – | – | – | – |
| Cc1ccc(/C=C2\NC(=S)NC2=O)cc1 | > 100 | > 100 | > 100 | – | > 100 | > 100 | > 100 | > 100 | – | > 100 | – | – | – | – | – | – | – | – | – |
| O=c1[nH]ncc2[nH]c3c4ccccc4ccc3c12 | 84.1 | > 100 | – | > 100 | – | 39.6 | > 100 | > 100 | – | > 100 | – | – | – | – | – | – | – | – | – |
| CCOC(=O)c1cn2c(n1)sc1cc(OC)ccc12 | > 65.5 | – | > 100 | – | > 100 | > 55.3 | > 100 | > 100 | > 100 | 20.2 | – | – | – | – | – | – | – | – | – |
| Nc1ccc(-c2nc3ccc(F)cc3s2)cc1Cl | > 89.2 | > 100 | > 100 | – | > 100 | > 100 | > 100 | > 100 | > 100 | > 100 | – | – | – | – | – | – | – | – | – |
| Cc1ccc2nc3n[nH]c(N)c3nc2c1 | > 100 | > 100 | > 100 | – | > 100 | > 100 | > 100 | – | > 100 | > 100 | – | – | – | – | – | – | – | – | – |
| Cc1cn(-c2cccc(NC(=O)c3ccc(C)c(Nc4nccc(-c5cccnc5)n4)c3)c2)cn1 | – | 10.9 | 3.92 | 19.8 | 10 | 8.26 | 3.05 | 4.17 | 3 | 3.74 | 1.23 | 2.08 | 4.61 | 3.01 | 2.73 | 1.6 | 1.47 | 1.59 | 1.98 |
| CC(C)(C)OC(=O)N1NC(c2ccccc2)CC1c1ccccc1 (centres undefined) | > 100 | 71.5 | – | – | 40.4 | 60.1 | > 100 | > 100 | > 100 | > 100 | – | – | – | – | – | – | – | – | – |
